From PubChem BioAssay (NCI)
Values joined by “and” are separate entries in the source; they are usually repeats but may differ in a detail not shown here. Equal values may be shown once.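 Interpolation was linear, between the two tested concentrations surrounding the appropriate level; five concentrations were tested over 48 hours in 96-well plates. GI50 marks 50% less growth. TGI marks complete inhibition of growth.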

Tests used:
Test in all cases: DTP human tumour cell line panel, 48 h
HCT-116 colon = test system: HCT-116 colon
LOX IMVI melanoma = test system: LOX IMVI melanoma
NCI-H226 lung = test system: NCI-H226 lung
NCI-H23 lung = test system: NCI-H23 lung
NCI-H460 lung = test system: NCI-H460 lung
OVCAR-3 ovarian = test system: OVCAR-3 ovarian
SK-OV-3 ovarian = test system: SK-OV-3 ovarian
UACC-62 melanoma = test system: UACC-62 melanoma

| SMILES | GI50 (HCT-116 colon) [µM] | TGI (HCT-116 colon) [µM] | GI50 (LOX IMVI melanoma) [µM] | TGI (LOX IMVI melanoma) [µM] | GI50 (NCI-H226 lung) [µM] | TGI (NCI-H226 lung) [µM] | GI50 (NCI-H23 lung) | TGI (NCI-H23 lung) [µM] | GI50 (NCI-H460 lung) [µM] | TGI (NCI-H460 lung) [µM] | GI50 (OVCAR-3 ovarian) | TGI (OVCAR-3 ovarian) [µM] | GI50 (SK-OV-3 ovarian) | TGI (SK-OV-3 ovarian) [µM] | GI50 (UACC-62 melanoma) | TGI (UACC-62 melanoma) [µM] |
| --- | --- | --- | --- | --- | --- | --- | --- | --- | --- | --- | --- | --- | --- | --- | --- | --- |
| Cc1ccccc1C1N=C2Oc3ccccc3C=C2C(=O)N1 (configuration not stated) | 6.37 | > 100 | 30.5 | > 100 | > 100 | > 100 | 2.5 µM | > 100 | 4.34 | > 100 | 0.621 µM | 2.69 | 0.66 µM | > 100 | 1.48 µM | > 100 |
| CC(C)c1c(C(=O)Nc2ccccc2)c(-c2ccccc2)c(-c2ccc(F)cc2)n1CC[C@@H](O)C[C@@H](O)CC(=O)O | 10.1 | > 100 | 3.11 | 22.9 | 25.5 | > 100 | 31 µM | > 100 | 41.3 | > 100 | 33.1 µM | > 100 | 63.7 µM | > 100 | 6.59 µM | 51.5 |
| CNC(=S)N/N=C/CSC/C=N/NC(=S)NC | 8.33 | > 100 | > 60.7 | > 100 | > 100 | > 100 | > 100 µM | > 100 | > 100 | > 100 | > 56.9 µM | > 100 | > 100 µM | > 100 | > 100 µM | > 100 |
| COc1cc(-c2nn(-c3cccc(NC(=O)NCCNC(=O)c4ccccc4)c3)cc2-c2ccncc2)ccc1Cl | 0.392 | > 100 | 2.46 | > 100 | 2.73 | 83.4 | 3.37 µM | > 100 | 3.56 | > 100 | 2.93 µM | > 100 | 4.21 µM | > 100 | 3.08 µM | 31.2 |
| O=c1[nH]c(-c2ccncc2)nc2sc3c(c12)CCCCCC3 |  |  | > 100 | > 100 | > 100 | > 100 | > 100 µM | > 100 | > 100 | > 100 | > 100 µM | > 100 |  |  | > 100 µM | > 100 |
| Cc1cc(C)c(CNC(=O)c2cc(Cl)c3c(c2C)O[C@@](C)(C2CCC(N(C)C)CC2)O3)c(=O)[nH]1 (some centres not stated) | 40.3 | > 100 | 47.8 | > 100 | 93 | > 100 | 75.6 µM | > 100 | > 100 | > 100 | > 100 µM | > 100 |  |  | > 100 µM | > 100 |
| c1c[nH]c(CN2CCN(Cc3ncc[nH]3)CC2)n1 |  | > 100 |  | > 100 |  | > 100 |  | > 100 |  | > 100 |  | > 100 |  | > 100 |  | > 100 |
| COc1cc(C(=O)N[C@@H]2CCCN(C)C2)ccc1Nc1ncc2c(n1)N(C1CCCC1)CC(C)(C)C(=O)N2C | 0.0509 | 5.21 | 0.0541 | 1.87 | 0.633 | 21.9 | 0.041 µM | 3.01 | 0.04 | 14.8 | 0.0442 µM | 16.1 | 0.0484 µM | 2.42 | 0.153 µM | 15.5 |
| Cc1nn(-c2ccccc2)c2c1[C@@H](C)[C@H]1CC3(CC4(C)C[C@@H]3C1(C)c1c(C)nn(-c3ccccc3)c1N4C)N2C (some centres not stated) |  |  |  |  | > 100 | > 100 | > 100 µM | > 100 |  |  |  |  | 24.1 µM | > 100 |  |  |
| COc1cccc(-c2cc(-c3ccc(Nc4nc(Nc5ccc(Cl)cc5)nc(Nc5ccc(Cl)cc5)n4)cc3)nc(N)c2C#N)c1 | 1.6 | 3.53 | 2.22 | 6.44 | 2.16 | 5.78 | 3.59 µM | > 54 | 3.74 | 24.4 | 1.73 µM | 3.53 | 24.9 µM | > 63.9 | 14.6 µM | 37.8 |
| Nc1nc(N)c2nc(CNc3ccc(C(=O)NC(CCC(=O)O)C(=O)O)cc3)cnc2n1 (configuration not stated) | < 0.01 | > 100 | < 0.01 | > 100 |  | > 100 | 0.0604 µM and 0.0213 µM | > 100 | < 0.01 | > 100 | 0.0695 µM and 0.0295 µM | > 100 | 0.0755 µM and < 0.01 µM | > 100 | 0.0274 µM and < 0.01 µM | > 100 |
| O=c1c2cc(F)ccc2sc2c(NCCCNCCO)nc3ccc(F)cc3c12 | 1.84 | 3.63 | 1.57 | 3.06 | 1.76 | 3.52 | 1.81 µM | 3.28 | 1.63 | 3.24 | 1.78 µM | 3.38 |  |  | 1.72 µM | 3.25 |
| OC1(c2ccccc2)c2ccccc2N(c2ccccc2)c2ccc(Cl)cc21 (configuration not stated) | 0.234 | 0.602 | 0.179 | 0.348 |  |  | 0.32 µM | 1.38 | 0.246 | 0.568 | 0.147 µM | 0.304 | 0.608 µM | 1.39 | 0.195 µM | 0.452 |
| COc1ccc2c(c1)c(-c1nc(-c3cn(C)c4ncccc34)cs1)cn2CCCCN1CCCCC1 |  |  |  |  | 1.52 | 3.11 | 1.75 µM | 3.28 | 1.68 | 3.2 | 1.7 µM | 3.15 | 1.71 µM | 3.15 |  |  |
| CCN(CC)CCN1C(=O)c2cccc3cc(N)cc(c23)C1=O |  | 38.5 |  |  |  | 36.6 |  | 20.3 |  | 18.2 |  | 44.3 |  | 69.3 |  | 24.6 |
| O=C(/C=C/c1c[nH]c2ccccc12)c1ccccc1O |  | 26 |  | 21.7 |  | 42.8 |  |  |  | 28.3 |  | 20.3 |  | 33 |  | 21 |
| C=CN(C(=O)N1CCN(c2cc3c(cc2F)c(=O)c(C(=O)O)cn3C2CC2)CC1)c1nc(-c2ccc(C)cc2)cs1 | 0.319 | > 100 |  |  | 2.91 | > 100 | 3.12 µM | 16.1 | 3.38 | > 100 | 3.83 µM | > 100 |  |  |  |  |
| CN(C)CCCn1c2c(c3ccc(N4CCNCC4)cc3c1=O)C(=O)c1ccccc1-2 |  |  | 0.145 | 0.481 | 0.564 | 2.9 | 1.05 µM | 2.64 | 0.307 | 1.56 | 1.05 µM | 3.07 | 1.05 µM | 3.51 | 1.03 µM | 2.52 |
